Experimental data as given in ChEMBL document CHEMBL1155102, “Synthesis of all stereoisomers of KRN7000, the CD1d-binding NKT cell ligand” (Bioorg Med Chem Lett, 2008).
The source made the active and inactive calls. No cut-off for these calls is given here.

Tests used:
Type in all cases: functional, cell-based
iNKT [1] = experiment: Induction of proliferation in mouse iNKT cells
iNKT [2] = experiment: Induction of IFN-gamma production in mouse iNKT cells
iNKT [3] = experiment: Induction of IL4/IL13 production in mouse iNKT cells
iNKT [4] = experiment: Induction of IFN-gamma production in human iNKT cells
iNKT [5] = experiment: Induction of IL4 production in human iNKT cells
iNKT [6] = experiment: Induction of IL13 production in human iNKT cells
iNKT [7] = experiment: Induction of IL4 production in mouse iNKT cells

| Structure (SMILES) | Activity (iNKT [1]) | Activity (iNKT [2]) | Activity (iNKT [3]) | Activity (iNKT [4]) | Activity (iNKT [5]) | Activity (iNKT [6]) | Activity (iNKT [7]) |
| --- | --- | --- | --- | --- | --- | --- | --- |
| CCCCCCCCCCCCCCCCCCCCCCCCCC(=O)N[C@@H](CO[C@H]1O[C@H](CO)[C@H](O)[C@H](O)[C@H]1O)[C@H](O)[C@@H](O)CCCCCCCCCCCCCC | Active | Active | Active | Active | Active | Active |  |
| CCCCCCCCCCCCCCCCCCCCCCCCCC(=O)N[C@@H](CO[C@H]1O[C@H](CO)[C@H](O)[C@H](O)[C@H]1O)[C@H](O)[C@H](O)CCCCCCCCCCCCCC | Active | Active | Active | Active | Active | Active |  |
| CCCCCCCCCCCCCCCCCCCCCCCCCC(=O)N[C@H](CO[C@H]1O[C@H](CO)[C@H](O)[C@H](O)[C@H]1O)[C@@H](O)[C@H](O)CCCCCCCCCCCCCC |  |  |  |  |  |  | Active |
| CCCCCCCCCCCCCCCCCCCCCCCCCC(=O)N[C@H](CO[C@H]1O[C@H](CO)[C@H](O)[C@H](O)[C@H]1O)[C@H](O)[C@H](O)CCCCCCCCCCCCCC |  |  |  | inactive | inactive |  |  |
| CCCCCCCCCCCCCCCCCCCCCCCCCC(=O)N[C@@H](CO[C@H]1O[C@H](CO)[C@H](O)[C@H](O)[C@H]1O)[C@@H](O)[C@@H](O)CCCCCCCCCCCCCC |  |  |  | Active | Active | Active | Active |
| CCCCCCCCCCCCCCCCCCCCCCCCCC(=O)N[C@@H](CO[C@H]1O[C@H](CO)[C@H](O)[C@H](O)[C@H]1O)[C@@H](O)[C@H](O)CCCCCCCCCCCCCC | Active |  |  | Active | Active | Active | Active |
| CCCCCCCCCCCCCCCCCCCCCCCCCC(=O)N[C@H](CO[C@H]1O[C@H](CO)[C@H](O)[C@H](O)[C@H]1O)[C@@H](O)[C@@H](O)CCCCCCCCCCCCCC | Active |  |  |  |  |  |  |
